Reference: patent US9765187B2, “MRI contrasting agent for contrasting cancer cell” (SNU R&DB FOUNDATION, priority 2014, dated 2017)

System: HCT116 cells
Test: pH-dependent cellular uptake (flow cytometry, fluorescence)
Format: cell-based, human
Conditions: fluorescence and flow cytometry
Description: HCT116 cells were exposed to PMNs, InS-NPs and Ce6 at different pHs to verify their cellular uptake respectively. The cells were incubated for 2 h, washed, harvested, and re-suspended with DPBS. In vitro cellular uptake was quantified using a flow cytometer (Beckman, San Jose, Calif., USA). For each sample 10,000 cells (gated events) were counted, and free Ce6 fluorescence was detected with logarithmic settings (FL4; λem=670 nm). Cells were counted as positive if their fluorescence (FL4) was higher than that of cells from an untreated cell suspension. Each experiment was analyzed statistically using the CXP Analysis Program.
The tumor cellular uptake of PMNs was monitored at different pH conditions (pH 7.4 and 6.8) using a KODAK In vivo Image Station (Image Station 4000 MM; Kodak, New Haven, Conn., USA) and a flow cytometer (Beckman, San Jose, Calif., USA). HCT116 cells (1×10^5 cells/mL) were incubated with each sample for 2 h in RPMI-1640 medium (pH 7.4 or 6.8, with 1% penicillin-streptomycin) at 37° C. and then analyzed. To ameliorate photobleaching during microscope observation, a drop of anti-fade mounting solution (5% N-propyl gallate, 47.5% glycerol, and 47.5% Tris-HCl, pH 8.4) was added to the cells.

## chlorin E6 [Ce6]
  cellular uptake at pH 6.8 versus pH 7.4: not affected by changes in pH
